“And” between values parts separate entries of the source, which are not always exact repeats. Equal entries are not always repeated.
Tested on: Brassica plants comprising mutant AHAS alleles
Assay: Field trial, pre-planting treatment (0, 10, 20, 30 g a.i./ha), two locations in Canada: ERG, EST1, EST2, PPTOX, VIG1, VIG2, VIG3 scores
Type: in vivo, Brassica napus
From the text: Tests were set up and conducted to asses the growth and performance of plants comprising AHAS full knock-out alleles, and to further analyze the correlation between the presence of full knockout and missense AHAS genes in Brassica plants and plant growth and herbicide tolerance of the Brassica plants in the field. To this end, the Brassica plants identified in Example 1 and 2 were backcrossed two times with an elite parent line, and subsequently selfed twice to obtain homozygous plants (BC2S2). Plants were grown as row plots in a split plot design with three replicates (main plots=herbicide treatments, subplots=genotypes) at two locations in Canada. Treatment pre-planting was carried out on the soil about two days before sowing with a dose of 0 (treatment A), 10 (treatment B), 20 (treatment C) or 30 (treatment D) g a.i./ha of thiencarbazone methyl. Herbicide tolerance was measured by scoring for different parameters. The parameter emergence (ERG) was scored at the cotyledon stage on a scale 1-9, where 1 means late emergence and 9 means early emergence. Establishment was scored 14 days after sowing (EST1) and 21 days after sowing (EST2). Scores were from 1 to 9, where 1 is the worst establishment (least plants that emerged), and 9 is the best establishment (most plants emerged). Phytotoxicity (PPTOX) was determined after establishment. Plants were evaluated on a scale of 1 to 9, where 1=completely yellowing, 5=50% of plant is yellow and 9=no yellowing. The vigor scores (see above) were determined at 1-2 leaf stage (VIG1), 7 days after VIG1 (VIG2) and 14 days after VIG1 (VIG3). The average values (Av) and standard deviations (SD) of the scores for the different parameters are represented in Table 7a-g.
Further, the contribution of the knock-out allele to herbicide tolerance conferred by the missense allele was calculated. First, the scores were corrected for a possible effect of the growth per se, independent of herbicide treatment. To this end, the scores for treatments B, C and D were divided by the scores for treatment A for the same genotype and for the same parameter (corrected herbicide tolerance scores). Next, the effect of the knock-out allele to these corrected herbicide tolerance scores obtained by the missense allele was calculated. Therefore, the corrected herbicide tolerance scores for the missense—knock-out allele combination was divided by the corrected herbicide tolerance scores for the missense allele—wild-type combination. In case the knock-out allele has no effect on herbicide tolerance conferred by the missense allele, this ratio should be 1. In case the knock-out allele positively contributes to the herbicide tolerance conferred by the missense allele, this ratio should be higher than 1. The results for the contribution of the knock-out allele to herbicide tolerance conferred by the missense allele as calculated above are shown in table 8.

[1] = Location B, treatment D 30 g a.i./ha pre-planting, ratio >1 = positive contribution

COC(=O)c1csc(C)c1S(=O)(=O)NC(=O)n1nc(OC)n(C)c1=O [thiencarbazone-methyl, methyl 4-[(4,5-dihydro-3-methoxy-4-methyl-5-oxo-1H-1,2,4-triazol-1-yl)carbonylsulfamoyl]-5-methylthiophene-3-carboxylate]
relative contribution of HETO104 (AHAS3 KO) to herbicide tolerance conferred by HETO108 (AHAS1 missense): EST2 [1]: 0.95 | relative contribution of HETO104 (AHAS3 KO) to herbicide tolerance conferred by HETO108 (AHAS1 missense): PPTOX [1]: 1.44 | relative contribution of HETO104 (AHAS3 KO) to herbicide tolerance conferred by HETO108 (AHAS1 missense): VIG1 [1]: 1.40 | relative contribution of HETO104 (AHAS3 KO) to herbicide tolerance conferred by HETO108 (AHAS1 missense): VIG2 [1]: 1.38 | relative contribution of HETO104 (AHAS3 KO) to herbicide tolerance conferred by HETO108 (AHAS1 missense): VIG3 [1]: 1.34 | relative contribution of HETO112 (AHAS1 KO) to herbicide tolerance conferred by HETO111 (AHAS3 missense): ERG [1]: 0.88 | relative contribution of HETO112 (AHAS1 KO) to herbicide tolerance conferred by HETO111 (AHAS3 missense): EST1 [1]: 0.97 | relative contribution of HETO112 (AHAS1 KO) to herbicide tolerance conferred by HETO111 (AHAS3 missense): EST2 [1]: 0.92 | relative contribution of HETO112 (AHAS1 KO) to herbicide tolerance conferred by HETO111 (AHAS3 missense): PPTOX [1]: 0.76 | relative contribution of HETO112 (AHAS1 KO) to herbicide tolerance conferred by HETO111 (AHAS3 missense): VIG1 [1]: 0.75 | relative contribution of HETO112 (AHAS1 KO) to herbicide tolerance conferred by HETO111 (AHAS3 missense): VIG2 [1]: 1.07 | relative contribution of HETO112 (AHAS1 KO) to herbicide tolerance conferred by HETO111 (AHAS3 missense): VIG3 [1]: 1.11 | vigor3 (VIG3) score, Av (plants AHAS1 HETO108 / AHAS3 HETO104, 10 g a.i./ha (treatment B) pre-planting, Location A): 8.00 | vigor3 (VIG3) score, Av (plants AHAS1 HETO108 / AHAS3 HETO104, 10 g a.i./ha (treatment B) pre-planting, Location B): 5.33 | vigor3 (VIG3) score, Av (plants AHAS1 HETO108 / AHAS3 HETO104, 20 g a.i./ha (treatment C) pre-planting, Location A): 6.67 | vigor3 (VIG3) score, Av (plants AHAS1 HETO108 / AHAS3 HETO104, 20 g a.i./ha (treatment C) pre-planting, Location B): 6.67 | vigor3 (VIG3) score, Av (plants AHAS1 HETO108 / AHAS3 HETO104, 30 g a.i./ha (treatment D) pre-planting, Location A): 6.67 | vigor3 (VIG3) score, Av (plants AHAS1 HETO108 / AHAS3 HETO104, 30 g a.i./ha (treatment D) pre-planting, Location B): 6.00 | vigor3 (VIG3) score, Av (plants AHAS1 HETO108 / AHAS3 HETO111, 10 g a.i./ha (treatment B) pre-planting, Location A): 8.33 | vigor3 (VIG3) score, Av (plants AHAS1 HETO108 / AHAS3 HETO111, 10 g a.i./ha (treatment B) pre-planting, Location B): 7.67 | vigor3 (VIG3) score, Av (plants AHAS1 HETO108 / AHAS3 HETO111, 20 g a.i./ha (treatment C) pre-planting, Location A): 7.00 | vigor3 (VIG3) score, Av (plants AHAS1 HETO108 / AHAS3 HETO111, 20 g a.i./ha (treatment C) pre-planting, Location B): 6.67 | vigor3 (VIG3) score, Av (plants AHAS1 HETO108 / AHAS3 HETO111, 30 g a.i./ha (treatment D) pre-planting, Location A): 8.00 | vigor3 (VIG3) score, Av (plants AHAS1 HETO108 / AHAS3 HETO111, 30 g a.i./ha (treatment D) pre-planting, Location B): 4.33 | vigor3 (VIG3) score, Av (plants AHAS1 HETO108 / AHAS3 WT, 10 g a.i./ha (treatment B) pre-planting, Location A): 8.33 and 7.67 | vigor3 (VIG3) score, Av (plants AHAS1 HETO108 / AHAS3 WT, 10 g a.i./ha (treatment B) pre-planting, Location B): 5.33 and 6.00 | vigor3 (VIG3) score, Av (plants AHAS1 HETO108 / AHAS3 WT, 20 g a.i./ha (treatment C) pre-planting, Location A): 7.33 and 7.00 | vigor3 (VIG3) score, Av (plants AHAS1 HETO108 / AHAS3 WT, 20 g a.i./ha (treatment C) pre-planting, Location B): 6.33 and 8.00 | vigor3 (VIG3) score, Av (plants AHAS1 HETO108 / AHAS3 WT, 30 g a.i./ha (treatment D) pre-planting, Location A): 7.00 and 7.33 | vigor3 (VIG3) score, Av (plants AHAS1 HETO108 / AHAS3 WT, 30 g a.i./ha (treatment D) pre-planting, Location B): 5.33 | vigor3 (VIG3) score, Av (plants AHAS1 HETO112 / AHAS3 HETO111, 10 g a.i./ha (treatment B) pre-planting, Location A): 8.00 | vigor3 (VIG3) score, Av (plants AHAS1 HETO112 / AHAS3 HETO111, 10 g a.i./ha (treatment B) pre-planting, Location B): 7.33 | vigor3 (VIG3) score, Av (plants AHAS1 HETO112 / AHAS3 HETO111, 20 g a.i./ha (treatment C) pre-planting, Location A): 7.00 | vigor3 (VIG3) score, Av (plants AHAS1 HETO112 / AHAS3 HETO111, 20 g a.i./ha (treatment C) pre-planting, Location B): 5.67 | vigor3 (VIG3) score, Av (plants AHAS1 HETO112 / AHAS3 HETO111, 30 g a.i./ha (treatment D) pre-planting, Location A): 7.67 | vigor3 (VIG3) score, Av (plants AHAS1 HETO112 / AHAS3 HETO111, 30 g a.i./ha (treatment D) pre-planting, Location B): 5.67 | vigor3 (VIG3) score, Av (plants AHAS1 HETO112 / AHAS3 WT, 10 g a.i./ha (treatment B) pre-planting, Location A): 1.00 | vigor3 (VIG3) score, Av (plants AHAS1 HETO112 / AHAS3 WT, 10 g a.i./ha (treatment B) pre-planting, Location B): 1.00 | vigor3 (VIG3) score, Av (plants AHAS1 HETO112 / AHAS3 WT, 20 g a.i./ha (treatment C) pre-planting, Location A): 1.00 | vigor3 (VIG3) score, Av (plants AHAS1 HETO112 / AHAS3 WT, 20 g a.i./ha (treatment C) pre-planting, Location B): 1.00 | vigor3 (VIG3) score, Av (plants AHAS1 HETO112 / AHAS3 WT, 30 g a.i./ha (treatment D) pre-planting, Location A): 1.00 | vigor3 (VIG3) score, Av (plants AHAS1 HETO112 / AHAS3 WT, 30 g a.i./ha (treatment D) pre-planting, Location B): 1.00 | vigor3 (VIG3) score, Av (plants AHAS1 WT / AHAS3 HETO104, 10 g a.i./ha (treatment B) pre-planting, Location A): 1.00 | vigor3 (VIG3) score, Av (plants AHAS1 WT / AHAS3 HETO104, 10 g a.i./ha (treatment B) pre-planting, Location B): 1.00 | vigor3 (VIG3) score, Av (plants AHAS1 WT / AHAS3 HETO104, 20 g a.i./ha (treatment C) pre-planting, Location A): 1.00 | vigor3 (VIG3) score, Av (plants AHAS1 WT / AHAS3 HETO104, 20 g a.i./ha (treatment C) pre-planting, Location B): 1.00 | vigor3 (VIG3) score, Av (plants AHAS1 WT / AHAS3 HETO104, 30 g a.i./ha (treatment D) pre-planting, Location A): 1.00 | vigor3 (VIG3) score, Av (plants AHAS1 WT / AHAS3 HETO104, 30 g a.i./ha (treatment D) pre-planting, Location B): 1.00 | vigor3 (VIG3) score, Av (plants AHAS1 WT / AHAS3 HETO111, 10 g a.i./ha (treatment B) pre-planting, Location A): 7.67 and 7.00 | vigor3 (VIG3) score, Av (plants AHAS1 WT / AHAS3 HETO111, 10 g a.i./ha (treatment B) pre-planting, Location B): 7.33 | vigor3 (VIG3) score, Av (plants AHAS1 WT / AHAS3 HETO111, 20 g a.i./ha (treatment C) pre-planting, Location A): 6.67 | vigor3 (VIG3) score, Av (plants AHAS1 WT / AHAS3 HETO111, 20 g a.i./ha (treatment C) pre-planting, Location B): 6.00 | vigor3 (VIG3) score, Av (plants AHAS1 WT / AHAS3 HETO111, 30 g a.i./ha (treatment D) pre-planting, Location A): 6.67 and 6.33 | vigor3 (VIG3) score, Av (plants AHAS1 WT / AHAS3 HETO111, 30 g a.i./ha (treatment D) pre-planting, Location B): 4.67 and 5.33 | vigor3 (VIG3) score, Av (plants AHAS1 WT / AHAS3 WT, 10 g a.i./ha (treatment B) pre-planting, Location A): 1.00 | vigor3 (VIG3) score, Av (plants AHAS1 WT / AHAS3 WT, 10 g a.i./ha (treatment B) pre-planting, Location B): 1.33 | vigor3 (VIG3) score, Av (plants AHAS1 WT / AHAS3 WT, 20 g a.i./ha (treatment C) pre-planting, Location A): 1.00 | vigor3 (VIG3) score, Av (plants AHAS1 WT / AHAS3 WT, 20 g a.i./ha (treatment C) pre-planting, Location B): 1.00 | vigor3 (VIG3) score, Av (plants AHAS1 WT / AHAS3 WT, 30 g a.i./ha (treatment D) pre-planting, Location A): 1.00 | vigor3 (VIG3) score, Av (plants AHAS1 WT / AHAS3 WT, 30 g a.i./ha (treatment D) pre-planting, Location B): 1.00
